Measured values from US20210388002A1, “DIMETHOXYBENZENE COMPOUND ANALOGS, METHODS FOR ANALYZING SAID COMPOUNDS AND STANDARD PRODUCTS OF SAID COMPOUNDS” (TAIHO PHARMACEUTICAL CO., LTD., priority 2018, published 2021).

Test: solubility in water and organic solvents
Type: physicochemical
Details: free form; water, highly water-soluble organic solvents, highly fat-soluble organic solvents

Question: With COc1cc(C#Cc2nn([C@H]3CCNC3)c3ncnc(N)c23)cc(OC)c1 [Compound B, (S)-3-((3,5-dimethoxyphenyl)ethynyl)-1-(pyrrolidin-3-yl)-1H-pyrazolo[3,4-d]pyrimidin-4-amine] as the compound, how does the solubility read?
Answer: easily soluble
